Laboratory results from PubChem BioAssay AID1963845 (Molecular Pharmacology Branch, DTP, NCI, 2024).

Test system: 429239-143-T-J1-PDC complex spheroid viability
Assay: Anticancer human tumor 429239-143-T-J1-PDC patient-derived small cell lung carcinoma cell line growth inhibition [POLQ]
Conditions: for IC50: curve of first compound; for viability, T/C: stronger effect = lower value
In short: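 Patient-derived tumour cells were co-cultured with HUVEC and mesenchymal stem cells as multicellular spheroids at 37 °C. They were treated with POLQ inhibitors (novobiocin, ART-558, RP6685) alone or combined with other agents. Top concentrations were at or near clinical Cmax (otherwise 10 microM; SN-38 at 1 microM), decreasing in half-log steps.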
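Note: luminescence signal used as surrogate measure of viable cells; spheroids exposed to compounds for seven days before readout.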
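Throughout, for viability, T/C: 100% = DMSO vehicle control viability as luminescence relative to vehicle.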

Compound `CCc1c2c(nc3ccc(O)cc13)-c1cc3c(c(=O)n1C2)COC(=O)[C@]3(O)CC` + COC1C(OC(N)=O)C(O)C(Oc2ccc3c(O)c(NC(=O)c4ccc(O)c(CC=C(C)C)c4)c(=O)oc3c2C)OC1(C)C has an IC50 (second compound 0.0316 µM) of under 3.16 nM, an IC50 (second compound 0.1 µM) of under 3.16 nM and an IC50 (second compound 0.316 µM) of under 3.16 nM. For the same compound, the IC50 (second compound 1 µM) was under 3.16 nM, the IC50 (second compound 3.16 µM) was under 3.16 nM and the IC50 (second compound 10 µM) was under 3.16 nM. It also gave a viability, T/C (second compound 0.0316 µM, first compound 0.00316 µM) of 19.1%, a viability, T/C (second compound 0.0316 µM, first compound 0.01 µM) of 17.6% and a viability, T/C (second compound 0.0316 µM, first compound 0.0316 µM) of 17.5%. It also gave a viability, T/C (second compound 0.0316 µM, first compound 0.1 µM) of 20%, a viability, T/C (second compound 0.0316 µM, first compound 0.316 µM) of 17.5% and a viability, T/C (second compound 0.0316 µM, first compound 1 µM) of 8.92%. It also gave a viability, T/C (second compound 0.1 µM, first compound 0.00316 µM) of 17%, a viability, T/C (second compound 0.1 µM, first compound 0.01 µM) of 17.4% and a viability, T/C (second compound 0.1 µM, first compound 0.0316 µM) of 17.8%. The viability, T/C (second compound 0.1 µM, first compound 0.1 µM) was 20.6%, the viability, T/C (second compound 0.1 µM, first compound 0.316 µM) was 14% and the viability, T/C (second compound 0.1 µM, first compound 1 µM) was 5.7%. The viability, T/C (second compound 0.316 µM, first compound 0.00316 µM) was 17.4%, the viability, T/C (second compound 0.316 µM, first compound 0.01 µM) was 18.3% and the viability, T/C (second compound 0.316 µM, first compound 0.0316 µM) was 17.3%. The viability, T/C (second compound 0.316 µM, first compound 0.1 µM) was 14.5%, the viability, T/C (second compound 0.316 µM, first compound 0.316 µM) was 15.6% and the viability, T/C (second compound 0.316 µM, first compound 1 µM) was 5.23%. For the same compound, the viability, T/C (second compound 1 µM, first compound 0.00316 µM) was 21.4%, the viability, T/C (second compound 1 µM, first compound 0.01 µM) was 18.1% and the viability, T/C (second compound 1 µM, first compound 0.0316 µM) was 18%. The viability, T/C (second compound 1 µM, first compound 0.1 µM) was 19.1%, the viability, T/C (second compound 1 µM, first compound 0.316 µM) was 12.5% and the viability, T/C (second compound 1 µM, first compound 1 µM) was 6.46%. For the same compound, the viability, T/C (second compound 3.16 µM, first compound 0.00316 µM) was 20.1%, the viability, T/C (second compound 3.16 µM, first compound 0.01 µM) was 14.8% and the viability, T/C (second compound 3.16 µM, first compound 0.0316 µM) was 18.4%. For the same compound, the viability, T/C (second compound 3.16 µM, first compound 0.1 µM) was 18.5%, the viability, T/C (second compound 3.16 µM, first compound 0.316 µM) was 15.3% and the viability, T/C (second compound 3.16 µM, first compound 1 µM) was 5.6%. It also gave a viability, T/C (second compound 10 µM, first compound 0.00316 µM) of 18.1%, a viability, T/C (second compound 10 µM, first compound 0.01 µM) of 18.9% and a viability, T/C (second compound 10 µM, first compound 0.0316 µM) of 18.2%. For the same compound, the viability, T/C (second compound 10 µM, first compound 0.1 µM) was 15.8%, the viability, T/C (second compound 10 µM, first compound 0.316 µM) was 14.8% and the viability, T/C (second compound 10 µM, first compound 1 µM) was 5.55%.
